Tests used:
[1] = tested on: HssRS-dependent hrtAB expression; test: Luminescence-based assay to monitor HssRS-dependent hrtAB expression (phrtABlux reporter), Newman; assay type: cell-based, Staphylococcus aureus; conditions: Newman; for Luminescence: raw luminescence value obtained in a luminometer; for activation at 0.0825 µM: Staphylococcus aureus, NEWMAN, read-out: % Lumi, luminescence induced by the compound compared to the heme control (82.5 nM) in the same plate
Experimental: (§1) With reference to Table 1, “Luminescence” refers to the raw luminescence value obtained in a luminomter. “Control (82.5 nm)” refers to the luminescence value obtained from heme at 82.5 nM as a positive control in the same plate as the experimental. “% lum” is the percentage of luminescence induced by the compound as compared to the heme control in the same plate. […] All of these assays are described in the application. […] “N/T” indicates the test was not performed.
A hrtAB-driven expression system was created in the pXen vector system (Xenogen) (Francis, K. P., D. Joh, C. Bellinger-Kawahara, M. J. Hawkinson, T. F. Purchio, and P. R. Contag. 2000. Monitoring bioluminescent Staphylococcus aureus infections in living mice using a novel luxABCDE construct. Infect Immun 68:3594-3600). This vector contains a promoterless luxCDABE operon from Photorabdus luminescens which produces blue green light when expressed. The luxCDABE encodes for a fatty acid reductase (LuxCDE) that produces a long chain fatty aldehyde which, when combined with cellular flavin mononucleotide, is oxidized by a luciferase (LuxAB) to produce light. Therefore, this system is useful in that it bypasses the need for substrate addition and is capable of generating light in the absence of any added reagents. Furthermore, the luminescent signal produced by the combined activities of LuxAB and LuxCDE is of sufficient intensity to be visualized in unmanipulated intact bacteria.
To establish an assay that measures HssRS-dependent expression of luxCDABE, the promoter for hrtAB upstream of luxCDABE was cloned and transformed this vector (phrtABlux) into wildtype and ΔhssR S. aureus. A promoterless vector (plux) and a plasmid containing luxCDABE under the control of a constitutive promoter (psrtAlux) (Mazmanian, S. K., G. Liu, H. Ton-That, and O. Schneewind. 1999. “Staphylococcus aureus sortase, an enzyme that anchors surface proteins to the cell wall.” Science 285:760-763) were included as negative and positive controls, respectively. Initially, wildtype S. aureus harboring either plux, phrtABlux, or psrtAlux were plated on solid medium that either lacked heme or contained 4 μM heme. Only wildtype S. aureus containing psrtAlux produced light on solid media regardless of the presence or absence of heme. […] Light was not produced by bacteria containing plux in either condition.
To adapt this system for a HTS to measure ligand recognition by HssRS, luminescence of wildtype and ΔhssR harboring the above listed plasmids in liquid media with or without heme was measured. […] Taken together, these experiments establish a whole cell […] assay that can identify small molecule modifiers of HssRS. This screen, in some aspects, can identify molecules that can be used as molecular probes in structure-function analyses to determine the mechanism by which S. aureus sense host heme.
Upon staphylococcal exposure to heme, HssRS senses heme and activates expression of hrtAB. This process can be measured using a reporter assay that employs a vector encoding the light-producing luxCDABE operon under the control of the hrtAB promoter. This assay results in whole cell luminescence upon HssRS-dependent activation of hrtAB, forming the foundation for the development of an assay suitable for high-throughput screens for small molecule activators of HssRS.
To develop an automated HTS format, S. aureus wildtype and ΔhssR harboring reporter constructs (psrtAlux, phrtAlux, plux) can be grown for 15 hours at 37° C. in tryptic soy broth (TSB) containing 10 μg/ml chloramphenicol. The addition of chloramphenicol is useful to ensure that the staphylococci propagate the reporter plasmid upon cell division. Following growth, bacterial cultures can be normalized and 2×10^7 cells (approximately 2 μl) can be added to individual wells of black walled, clear bottomed, 96-well plates. […]

[2] = tested on: hrtAB-driven expression of the xylE reporter gene; test: XylE reporter assay (hrtAB promoter-xylE), Newman; assay type: cell-based, Staphylococcus aureus; conditions: for XylE (0.5): level of XylE induction at 0.5 uM of the compound; for XylE (5.0): level of XylE induction at 5.0 uM of the compound; for XylE (50.0): level of XylE induction at 50.0 uM of the compound; for XylE (0.05): level of XylE induction at 0.05 uM of the compound
Experimental: as §1
Compounds that activate HssRS-driven hrtAB expression in the luciferase-based screen can be subjected to two separate counter screens to confirm these compounds as active hits. First, compounds of interest can be tested for their ability to activate expression of hrtAB in the XylE expression assay described hereinbelow. This is an in vitro assay that measures hrtAB-driven expression of the xylE reporter gene. The XylE-based reporter assay utilizes slightly more manipulations than the primary luciferase-based screen. […] It should be appreciated that a shortcoming of this counter screen is that it measures reporter gene expression, which is a similar activity as that measured in the primary assay. To address this shortcoming, compounds that are positive in both XylE- and luciferase-based assays can be subjected to a second counter screen as described hereinbelow.
S. aureus strains harboring the appropriate reporter construct were inoculated into 500 μl of TSB containing 10 μg/ml chloramphenicol in 1.5 ml tubes. Cultures were grown O/N at 37° C. with shaking. Bacteria were pelleted by centrifugation and spent medium was aspirated. The pellet was washed once with 500 μl of 20 mM potassium phosphate, pH 7.6, and resuspended in 150 μl of 100 mM potassium phosphate buffer, pH 8.0, 10% (v/v) acetone, 25 μg/ml lysostaphin. After 20 minute incubation at 37° C. and 5 minute incubation on ice, samples were centrifuged at 20,000 g for 30 minutes at 4° C. 1-10 μl of supernatant was added to a 96-well plate and 200 μl of 100 mM potassium phosphate, pH 8.0, 0.2 mM pyrocatechol was added to each well. Formation of 2-hydroxymuconic semialdehyde was tracked by measuring the absorbance at 375 nm every minute for 30 minutes on a Varian MP 50 microplate reader. Protein concentration in samples was determined by BCA (Pierce). One unit of specific activity of XylE in a sample is defined as the formation of 1 nmol of 2-hydroxymuconic semialdehyde per minute per milligram of cellular protein at 30° C. (Chien, Y., Manna, A. C., Projan, S. J., and Cheung, A. L. 1999, “SarA, a global regulator of virulence determinants in Staphylococcus aureus, binds to a conserved motif essential for sar-dependent gene regulation. J. Biol. Chem. 274, 37169-37176).
The hrtAB intergenic region was fused to the xylE structural gene by PCR-SOE. In the first reaction, primer P1B:[…] and P2B:[…] were used to amplify the hrtAB intergenic region from S. aureus strain Newman genomic DNA. In the second PCR reaction primers P3B:[…] and P4B:[…] were used to amplify the xylE structural gene using pALC1639 template DNA (provided by Dr. Ambrose Cheung) and PCR product purified using a Qiagen gel extraction kit. For the PCRSOE reaction, a 1:300 dilution of purified reaction 1 and reaction 2 PCR products was mixed and amplified by PCR using […]. This yielded a construct in which the hrtAB intergenic region is fused to the xylE gene in such a manner that the position of the start codon for xylE corresponds to the position of the start codon for […] in the hrtAB locus. The hrtAB promoter-xylE fusion DNA was then subcloned into pOS1. As a control we also constructed a promoterless xylE vector. The xylE gene was amplified from pACL1639 template DNA using the primers P1C:[…] and P2C:[…] and then cloned into the pOS1 vector.

Compound | Luminescence [1] | XylE (0.5) [2] | XylE (5.0) [2] | XylE (50.0) [2] | activation at 0.0825 µM [1] [%] | XylE (0.05) [2]
COc1ccc(C2CC(C3C(=O)c4ccccc4C3=O)=NN2)cc1 (stereo not shown) | 1888 | 0.08 | 5 | 0.09 |  | 
Cc1cc(-c2ccc(N)cc2)nc2ccc3ccccc3c12 | 576 | 0.06 | 0.02 | 0.04 | 136 | 0.09
O=C(Nc1c2c(nn1-c1ccc(Cl)cc1)CSC2)c1cccc(C(F)(F)F)c1 | 2866 | 0.03 | 0.04 | 0.06 |  | 
COC(=O)C1=C(C)NC(=O)NC1c1cn(-c2ccccc2)nc1-c1ccc(OC)c(OC)c1 (stereo not shown) | 1854 | 0.04 | 0.03 | 0.05 | 866 | 
COC(=O)CCNc1nc(-c2ccc(Br)cc2)nc2ccccc12 | 1714 | 0.03 | 0.02 | 0.8 | 484 | 
CCN(CC)S(=O)(=O)c1cc(C(=O)NC2CCCCCC2)ccc1Cl | 2080 | 1 | 1 | 0.05 | 759 | 1
C/C=C/C=N/Nc1nnc2c(n1)[nH]c1ccccc12 | 1696 | 0.06 | 0.1 | 1 | 202 | 0.04
O=C(Nc1ccncc1)c1ccc(COc2cc(Cl)ccc2Cl)cc1 | 1845 | 1 | 0.4 | 1 | 597 | 
O=C(Nc1ccc(C(F)(F)F)cc1)c1cc(S(=O)(=O)NCc2ccc(F)cc2)ccc1F | 1710 | 0 | 0.03 | 0.03 | 493 | 
CCC(C)NC(=O)c1sc2nc(C)nc(N3CCCCC3)c2c1C (stereo not shown) | 2301 | 1 | 1 | 7 |  | 1
Cc1cccc(NC(=O)c2cc3ccccc3cc2O)c1 | 794 | 0.09 | 0.1 | 0.02 | 217 | 0.02
O=C(NC(=S)Nc1ccc(-c2nc3ccccc3s2)cc1)c1ccccc1[N+](=O)[O-] [drawing 61] | 1794 | 0.7 | 0.8 | 0.8 |  | 0.1
Cc1c(NC(=O)c2ccc(Cl)c([N+](=O)[O-])c2)cccc1-c1nc2ccccc2o1 | 1912 | 0.06 | 0.1 | 0.5 |  | 
O=C(NC(=S)Nc1ccc(-c2nc3ccccc3s2)cc1)c1ccccc1[N+](=O)[O-] [drawing 23] | 1794 | 0.07 | 0.08 | 0.2 | 374 | 0.09
O=C(Nc1ccccc1O)c1cccc(N2C(=O)c3ccc([N+](=O)[O-])cc3C2=O)c1 | 1850 | 0.02 | 0 | 0.03 | 675 | 
CCOC(=O)c1c(NC(=O)C2CCCCC2)sc(C(=O)Nc2ccc(C)c(Cl)c2)c1C | 2374 | 2 | 1 | 1 |  | 8
NS(=O)(=O)c1ccc(NC(=O)CCCOc2ccc(Cl)cc2Cl)cc1 | 325 | 0.05 | 3 | 0 | 45.6 | 0.03
O=c1c2ccccc2nc(/C=C\c2ccccc2F)n1-c1ccccc1F | 3115 | 1 | 0 | 0 |  | 
Cc1ccc(O)c(NC(=O)c2nn3c(c2Br)NC(c2ccco2)CC3C(F)(F)F)c1 (stereo not shown) [drawing 60] | 1949 | 0.7 | 11 | 1 |  | 0.07
COc1ccc(Cl)cc1NC(=O)Nc1ccc(Cl)cc1 | 586 | 0.03 | 0 | 0.03 | 180 | 1
O=C(Nc1ccc(-c2csc(Nc3cccc(Cl)c3)n2)cc1)c1ccccc1 | 3586 | 0.07 | 1 | 0.08 |  | 1
Cc1ccc2c(c1)C(c1ccccc1)=NNC(c1ccccc1)=N2 | 2763 | 0 | 0.2 | 0.4 |  | 
CC1(C)CC(=O)C(=CNCc2ccc(F)cc2)C(=O)C1 | 1003 | 0.09 | 0.9 | 0.06 | 120 | 0.07

Reference: US8263642B2, “Antimicrobial compounds and methods of use thereof” (Vanderbilt University, priority 2008, dated 2012)
